Key:
[1] = system: C57BL6 mice; assay: Metabolic imaging in mice using sequential ReMI; format: in vivo
Source text: Female C57BL6 mice (5 weeks old) were purchased from Japan SLC, Inc. (Hamamatsu, Japan) and acclimated for one week before the experiment. Mice were 6 to 8 weeks old at the time of the experiment (body weight: 20-30 g), and five mice were kept in each cage in a room that was adjusted to a 24-hour cycle rhythm, wherein the temperature and moisture of the room were also adjusted. Food and water were given ad libitum. All the procedures and animal care were approved by the Animal Experiment Ethics Committee of Kyushu University and carried out in accordance with guidelines for animal experiments established by Kyushu University.
Mice were anesthetized with 2% isoflurane in the FADH experiment or with urethane (2 g/kg) in the CoQ0H experiment and immobilized with a skin adhesive tape, wherein the stomach was placed to the lower side. During the experiment, the temperature of mice was kept at 37+/−1° C. with a warm current of air. Subsequently, mice were placed in a resonator and ReMI measurement was started. ReMI images of the lower abdominal region were examined after administering an 8 mM CoQ0 alkaline solution (800 μL) to the rectum or administering an FAD/NADH solution intramuscularly.
ReMI images were obtained by using a DNP-MRI system manufactured at Kyushu University in an experiment using FADH and a Philips prototype system in an experiment using CoQ0. The ReMI experiment was conducted using the abovementioned parameters. Radical metabolic images (redox maps) were obtained by calculating changes in ReMI intensity in each pixel among the first four ReMI images (from a semi-logarithmic plot line of each pixel on sequential images).

[2] = system: mitochondria collected from a rat; assay: ReMI metabolic imaging in the presence of mitochondria (phantom tubes); format: in vitro ADME; details: mitochondria fractions of various concentrations
Procedure: The ReMI experiment was conducted by using a DNP-MRI system manufactured at Kyushu University. The DNP-MRI system was constituted by using an external magnet for an EPR device (JES-ES20, JEOL Ltd.) and two axis field gradient coils for CW-EPR imaging. A resonator was constituted of a surface coil for ESR irradiation, an NMR cross coil within a saddle, and a solenoid for transmission and signal reception. An ESR irradiation coil was disposed between two NMR coils. […] A surface coil (diameter: 20 mm) was used for ESR irradiation, and an NMR coil assembly was constituted of an NMR transmission saddle coil (90 mm i.d., 175 mm in length) and a solenoid reception coil (40 mm i.d., 60 mm in length) having a bandwidth of 1 kHz. The maximum transmission power was 100 W. The ReMI experiment was conducted by a spin echo method. The ReMI experiment was conducted under the following conditions: EPR irradiation power, 12 W; flip angle, 90 degrees; TEPR×repetition time (TR)×echo time (TE)=500×1000×40 ms; average number=1; slice thickness, 30 mm; and a 64-phase modulation step. For the image field (32×32 mm), 64×64 matrix was used.
To a phantom tube filled with mitochondria collected from a rat was added FADH or CoQ0H in an experiment. […] The metabolic rates (decreasing rates) of FADH and CoQ0H were calculated from changes in the first four image intensities after the reaction with mitochondria.

pharmacokinetic map (decreasing rate) ([1]; calculated from first four ReMI images): constant
metabolism in the muscle by ReMI scanning ([1]; intramuscular administration): metabolized slowly
ReMI image intensity during the test period ([1]; intramuscular administration in both legs, imaging every two minutes, 14 minutes): stable
redox map (intensity declining speed) ([2]; calculated from first four image intensities): no change
change in ReMI image intensity over time after reaction with mitochondria ([2]; images every two minutes, EPR irradiation 572.5 MHz): no reaction with mitochondria
Substance: FADH
distribution in fusion images of MRI and ReMI ([1]; FADH intramuscular, CoQ0H rectal): site-specifically distributed in the legs
